Where two headings read alike, the source gives them in different places.
Key:
[1] = test system: HSV-2; experiment: Viral titer from Vero cells pre-treated with oligonucleotide, HSV-2; format: cell-based, African Green monkey (Vero cells); conditions: cells infected with HSV-2
Procedure: Vero cells, a cell line derived from African Green monkey kidney, were pre-treated with varying concentrations of ISS or non-ISS oligonucleotides for varying times prior to the addition of HSV-1 or HSV-2. Oligonucleotides were used at 1 μg/ml or 10 μg/ml and the cells were incubated with the oligonucleotides for 30 seconds, 10 minutes or 24 hours. Viral titers were calculated as a percent of control titer generated by cells not treated with the oligonucleotides. The data are expressed as percent of control titer.

[2] = test system: influenza A/Mississippi (H3N2) virus; format: in vivo, mice; conditions: for Pulmonary virus titer (log10/lung) Mean / Pulmonary virus titer (log10/lung) in mouse no. 1 / Pulmonary virus titer (log10/lung) in mouse no. 2 / Pulmonary virus titer (log10/lung) in mouse no. 3 / Pulmonary virus titer (log10/lung) in mouse no. 4 / Pulmonary virus titer (log10/lung) in mouse no. 5 / Pulmonary virus titer (log10/lung) in mouse no. 6 / Pulmonary virus titer (log10/lung) in mouse no. 7: non-ISS = SEQ ID NO:9
[3] = test system: influenza A/Mississippi (H3N2) virus; format: in vivo, mice; conditions: for Pulmonary virus titer (log10/lung) Mean / Pulmonary virus titer (log10/lung) in mouse no. 1 / Pulmonary virus titer (log10/lung) in mouse no. 2 / Pulmonary virus titer (log10/lung) in mouse no. 3 / Pulmonary virus titer (log10/lung) in mouse no. 4 / Pulmonary virus titer (log10/lung) in mouse no. 5: non-ISS = SEQ ID NO:10
[4] = test system: CRPV-E8m; experiment: Rabbit papilloma model (CRPV-E8m), papilloma geometric mean diameter
Procedure: In another experiment, a mutant of CRPV which induces small papillomas, CRPV-E8m, was used to induce papillomas on five rabbit treatment groups (five rabbits per group). In each animal, papillomas on the left side of the animal received treatments and papillomas on the right side were untreated. Four of the treatment groups received doses between 100 μg and 2000 μg of ISS as intradermal injections per papilloma at several treatment regimes and the fifth group received injections of PBS as control, as outlined below.
Four papillomas, initiated with CRPV-E8m plasmid DNA, were established on each rabbit. Skin at the site of papilloma initiation was made hyperplastic using a mixture of turpentine and acetone prior to viral DNA administration. The size of papillomas was measured (three dimensions, in mm) and the GMD calculated for each papilloma.

[5] = test system: RSV A2; experiment: RSV lung titer in cotton rats after non-local (IP or SC) administration; format: in vivo, cotton rat (Sigmoden hispidis); conditions: for RSV titer (log10/g lung) Mean / RSV titer (log10/g lung) in cotton rat no. 1 / RSV titer (log10/g lung) in cotton rat no. 2 / RSV titer (log10/g lung) in cotton rat no. 3 / RSV titer (log10/g lung) in cotton rat no. 4 / RSV titer (log10/g lung) in CR no. 1 / RSV titer (log10/g lung) in CR no. 2 / RSV titer (log10/g lung) in CR no. 3 / RSV titer (log10/g lung) in CR no. 4: Non-ISS = SEQ ID NO:10
Procedure: Cotton rats, 50-100 g and 4-12 weeks old (Sigmoden hispidis) of either sex were used in these studies. All of the animals were descendants of two pair of cotton rats obtained in 1984 from the Small Animal Section of the Veterinary Research Branch, Division of Research Services, National Institutes of Health.
RSV strain A2 was purchased from the ATCC (ATCC VR26). Working stocks of this virus were prepared as described in detail by Wyde et al. (1995) Pediatr. Res. 38:543-550. ISS sequence tested for RSV experiments was 5′-[…]-3′ (SEQ ID NO:1) (phosphorothioate). Control, non-ISS sequences used were 5′-[…]-3′ (SEQ ID NO:9) (phosphorothioate) and 5′-[…]-3′ (SEQ ID NO:10) (phosphorothioate), as well as PBS.
RSV levels in virus pools and lung lavage fluids (L.F.) were determined using sterile 96-well, flat bottom tissue culture plates (Falcon 3072), serial 3-fold dilutions and 2% FCS-MEM as described in detail previously (Wyde et al., 1995). […] The amount of virus in virus pools was expressed as a median tissue culture infectious doses (TCID50/ml, log10). Titers of virus in L.F. were expressed as TCID50/g lung tissue (log10). The minimum detectable virus concentration in these assays was 1.3 log10 TCID50/ml (virus pools) or 1.6 log10 TCID50/g lung.
Twenty cotton rats were divided into 5 groups of 4 animals. Administered to these animals, either intraperitoneally (IP) or subcutaneously (SC), was PBS, immunostimulatory sequence (ISS) 5′-[…]-3′ (SEQ ID NO:1) or non-ISS sequence 5′-[…]-3′ (SEQ ID NO:10), each sequence at 150 μg/injection. On Day 0 each of these animals was […] IN with 100 TCID50 of RSV A2. Four days later each cotton rat was sacrificed. The lungs of each animal were removed, lavaged and assessed for RSV.

[6] = test system: HSV-2 strain MS; experiment: Recurrent genital HSV-2 disease in guinea pigs; format: in vivo, Swiss Hartley guinea pigs
[7] = 50 μg IN Day 0 shortly before virus, lungs Day 4
[8] = 50 μg IN Day −3, virus Day 0, lungs Day 4
[9] = 50 μg IP Day −1, virus Day 0, lungs Day 4
[10] = 50 μg IP Day −3, virus Day 0, lungs Day 4
[11] = 150 μg IP Day −1, RSV Day 0, lungs Day 4
[12] = 150 μg IP Day −3, RSV Day 0, lungs Day 4
[13] = 150 μg SC Day −1, RSV Day 0, lungs Day 4
[14] = 150 μg SC Day −3, RSV Day 0, lungs Day 4

Substance: 5′-TGACTGTGAACGTTCGAGATGA-3′ [SEQ ID NO: 1]
- Viral titer, percent of control titer ([1]; cells pre-treated 1 μg/ml, 30 sec): 101% of control titer
- Viral titer, percent of control titer ([1]; cells pre-treated 1 μg/ml, 10 min): 98% of control titer
- Viral titer, percent of control titer ([1]; cells pre-treated 1 μg/ml, 24 hr): 99% of control titer
- Viral titer, percent of control titer ([1]; cells pre-treated 10 μg/ml, 30 sec): 101% of control titer
- Viral titer, percent of control titer ([1]; cells pre-treated 10 μg/ml, 10 min): 101% of control titer
- Viral titer, percent of control titer ([1]; cells pre-treated 10 μg/ml, 24 hr): 99% of control titer
- Pulmonary virus titer (log10/lung) Mean [2, 7]: 4.6 log10/lung
- Pulmonary virus titer (log10/lung) in mouse no. 1 [2, 7]: 4 log10/lung
- Pulmonary virus titer (log10/lung) in mouse no. 2 [2, 7]: 5.5 log10/lung
- Pulmonary virus titer (log10/lung) in mouse no. 3 [2, 7]: 5 log10/lung
- Pulmonary virus titer (log10/lung) in mouse no. 4 [2, 7]: 4.5 log10/lung
- Pulmonary virus titer (log10/lung) in mouse no. 5 [2, 7]: 4.5 log10/lung
- Pulmonary virus titer (log10/lung) in mouse no. 6 [2, 7]: 4.5 log10/lung
- Pulmonary virus titer (log10/lung) in mouse no. 7 [2, 7]: 4.5 log10/lung
- Pulmonary virus titer (log10/lung) Mean [2, 8]: 4.7 log10/lung
- Pulmonary virus titer (log10/lung) in mouse no. 1 [2, 8]: 5.5 log10/lung
- Pulmonary virus titer (log10/lung) in mouse no. 2 [2, 8]: 4 log10/lung
- Pulmonary virus titer (log10/lung) in mouse no. 3 [2, 8]: 6 log10/lung
- Pulmonary virus titer (log10/lung) in mouse no. 4 [2, 8]: 5.5 log10/lung
- Pulmonary virus titer (log10/lung) in mouse no. 5 [2, 8]: 5 log10/lung
- Pulmonary virus titer (log10/lung) in mouse no. 6 [2, 8]: 4 log10/lung
- Pulmonary virus titer (log10/lung) in mouse no. 7 [2, 8]: 3 log10/lung
- Reduction in influenza virus titer compared to PBS ([2]; IN, 50 μg/mouse before viral infection): fails to cause a satisfactory significant reduction in virus titer
- Pulmonary virus titer (log10/lung) Mean [3, 9]: 6.8 log10/lung
- Pulmonary virus titer (log10/lung) in mouse no. 1 [3, 9]: 6.3 log10/lung
- Pulmonary virus titer (log10/lung) in mouse no. 2 [3, 9]: 6.8 log10/lung
- Pulmonary virus titer (log10/lung) in mouse no. 3 [3, 9]: 7.3 log10/lung
- Pulmonary virus titer (log10/lung) in mouse no. 4 [3, 9]: 6.8 log10/lung
- Pulmonary virus titer (log10/lung) in mouse no. 5 [3, 9]: 6.8 log10/lung
- Pulmonary virus titer (log10/lung) Mean [3, 10]: 6.9 log10/lung
- Pulmonary virus titer (log10/lung) in mouse no. 1 [3, 10]: 7.3 log10/lung
- Pulmonary virus titer (log10/lung) in mouse no. 2 [3, 10]: 5.8 log10/lung
- Pulmonary virus titer (log10/lung) in mouse no. 3 [3, 10]: 7.3 log10/lung
- Pulmonary virus titer (log10/lung) in mouse no. 4 [3, 10]: 6.8 log10/lung
- Pulmonary virus titer (log10/lung) in mouse no. 5 [3, 10]: 7.3 log10/lung
- Reduction in influenza virus titer compared to PBS ([3]; IP, 50 μg/mouse before viral infection): fails to cause a satisfactory significant reduction in virus titer
- Size of papillomas (GMD), treated versus untreated ([4]; Treatment Group C: 500 μg/injection, 1 time/week days 47-86, intradermal): reduction in the size of the ISS treated papillomas compared to untreated papillomas
- Papilloma growth rates, treated versus untreated papillomas ([4]; Treatment Groups A, B, D (100 μg 3x/week; 100 μg 1x/week; 2000 μg weeks 7 and 10), intradermal): Minimal differences
- RSV titer (log10/g lung) Mean [5, 11]: 3.6 log10/g lung
- RSV titer (log10/g lung) in cotton rat no. 1 [5, 11]: 3.8 log10/g lung
- RSV titer (log10/g lung) in cotton rat no. 2 [5, 11]: 3.3 log10/g lung
- RSV titer (log10/g lung) in cotton rat no. 3 [5, 11]: 3.3 log10/g lung
- RSV titer (log10/g lung) in cotton rat no. 4 [5, 11]: 3.8 log10/g lung
- RSV titer (log10/g lung) Mean [5, 12]: 3.7 log10/g lung
- RSV titer (log10/g lung) in cotton rat no. 1 [5, 12]: 3.3 log10/g lung
- RSV titer (log10/g lung) in cotton rat no. 2 [5, 12]: 3.8 log10/g lung
- RSV titer (log10/g lung) in cotton rat no. 3 [5, 12]: 3.8 log10/g lung
- RSV titer (log10/g lung) in cotton rat no. 4 [5, 12]: 3.8 log10/g lung
- RSV titer (log10/g lung) Mean [5, 13]: 4.0 log10/g lung
- RSV titer (log10/g lung) in CR no. 1 [5, 13]: 4 log10/g lung
- RSV titer (log10/g lung) in CR no. 2 [5, 13]: 4.5 log10/g lung
- RSV titer (log10/g lung) in CR no. 3 [5, 13]: 3.5 log10/g lung
- RSV titer (log10/g lung) in CR no. 4 [5, 13]: 4 log10/g lung
- RSV titer (log10/g lung) Mean [5, 14]: 4.1 log10/g lung
- RSV titer (log10/g lung) in CR no. 1 [5, 14]: 4 log10/g lung
- RSV titer (log10/g lung) in CR no. 2 [5, 14]: 4.5 log10/g lung
- RSV titer (log10/g lung) in CR no. 3 [5, 14]: 4 log10/g lung
- RSV titer (log10/g lung) in CR no. 4 [5, 14]: 4 log10/g lung
- Reduction in RSV viral titers compared to PBS ([5]; IP and SC administration of 150 μg): failed to cause a statistically significant reduction in viral titers
- Frequency of recurrences (recurrent lesions) ([6]; 200 μg at 21 days PI (one group also days 42 and 63), ANOVA p=0.012): significant reduction in the frequency of recurrences
- Effect on frequency of viral shedding ([6]; single topical treatment 1 mg at day 21): unaffected
- Magnitude of viral shedding ([6]; single topical treatment 1 mg at day 21, vs control groups, p<0.001): significantly reduced
- Cumulative mean recurrent lesion days ([6]; single topical treatment 1 mg at day 21, vs non-ISS control or untreated): significantly decreased the cumulative mean recurrent lesion days

— US20050059626A1, “Methods of preventing and treating viral infections using immunomodulatory polynucleotide sequences” (priority 2000, published 2005)
